Measurements taken from BigSolDB 2.1.

O=C(N[C@@H](CO)C(=O)O)OCc1ccccc1
solubility (mole fraction)
Details | 283.15 K | 288.15 K | 293.15 K | 298.15 K | 303.15 K | 308.15 K | 313.15 K | 318.15 K | 323.15 K
in 2-butanone | 0.0333 | 0.037 | 0.0404 | 0.0456 | 0.052 | 0.0604 | 0.0726 | 0.0946 | 0.115
in acetone | 0.0708 | 0.0762 | 0.0835 | 0.0955 | 0.11 | 0.127 | 0.15 | 0.176 | 0.205
in acetonitrile | 0.00705 | 0.00841 | 0.00993 | 0.0126 | 0.0161 | 0.0213 | 0.0276 | 0.0385 | 0.0625
in ethyl acetate | 0.0143 | 0.0163 | 0.0189 | 0.0217 | 0.0257 | 0.0296 | 0.0353 | 0.0429 | 0.0541
in isobutanol | 0.0221 | 0.0246 | 0.0296 | 0.0365 | 0.0443 | 0.0552 | 0.0665 | 0.0912 | 0.115
in isopropanol | 0.0443 | 0.0505 | 0.0591 | 0.0707 | 0.0841 | 0.103 | 0.123 | 0.152 | 0.185
in methyl acetate | 0.0215 | 0.0262 | 0.0318 | 0.0365 | 0.0418 | 0.0477 | 0.0536 | 0.0635 | 0.0804
in n-butanol | 0.0279 | 0.0313 | 0.0388 | 0.0463 | 0.0562 | 0.067 | 0.0821 | 0.102 | 0.137
in n-pentanol | 0.0265 | 0.0286 | 0.0331 | 0.039 | 0.0455 | 0.0542 | 0.0628 | 0.0854 | 0.112
in n-propanol | 0.0496 | 0.0567 | 0.0645 | 0.0722 | 0.0838 | 0.0956 | 0.11 | 0.127 | 0.175
in sec-butanol | 0.0335 | 0.0385 | 0.0471 | 0.0585 | 0.0715 | 0.0862 | 0.109 | 0.13 | 0.159
in water | 0.00097 | 0.00116 | 0.00133 | 0.00165 | 0.002 | 0.00247 | 0.00309 | 0.00448 | 0.00737
